The text below walks through data of BindingDB's records for patent US20230399314 (Wuhan Humanwell Innovative Drug Research and Development …, 2023).

5'-nucleotidase, sequence (P21589 whole entry): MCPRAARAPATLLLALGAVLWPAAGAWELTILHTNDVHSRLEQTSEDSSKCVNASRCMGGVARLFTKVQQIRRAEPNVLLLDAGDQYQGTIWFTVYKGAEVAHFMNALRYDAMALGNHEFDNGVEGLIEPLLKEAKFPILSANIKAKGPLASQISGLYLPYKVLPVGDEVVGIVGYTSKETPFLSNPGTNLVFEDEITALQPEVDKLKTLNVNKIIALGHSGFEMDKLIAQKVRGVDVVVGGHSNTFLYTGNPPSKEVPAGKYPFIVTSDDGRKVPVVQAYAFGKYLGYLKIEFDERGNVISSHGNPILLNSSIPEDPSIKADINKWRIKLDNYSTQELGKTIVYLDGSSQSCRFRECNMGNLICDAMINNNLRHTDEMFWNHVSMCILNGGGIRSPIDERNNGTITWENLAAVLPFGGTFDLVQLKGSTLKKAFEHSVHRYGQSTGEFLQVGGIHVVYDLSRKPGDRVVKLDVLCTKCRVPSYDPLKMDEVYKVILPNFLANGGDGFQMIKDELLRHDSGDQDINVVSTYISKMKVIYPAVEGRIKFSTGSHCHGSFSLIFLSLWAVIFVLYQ

The assay has as its target 5'-nucleotidase (Homo sapiens, UniProt P21589). Nature of the assay: In Vitro Inhibitory Activity of Compound to Recombinant Human CD73 Enzyme. As to the method: Human-CD73 (Novoprotein; C446) was diluted with Tris-MgCl2 buffer to form a stock solution (3×), which was placed in a 96-well plate according to 20 μL/well to obtain a final concentration of 0.1 μg/mL. The compound was diluted with Tris-MgCl2 buffer to form a stock solution (3×) of an appropriate concentration gradient, the compound solution was added to the above 96-well plate according to 20 μL/well and uniformly mixed with the Human-CD73 solution, and the mixture was incubated at the room temperature for 30 min. Meanwhile, a positive reference group (without the compound) and a negative reference group (without CD73) were set. AMP (Sigma; A1752-5G) was diluted with Tris-MgCl2 buffer to form a stock solution (3×), which was added to the above 96-well plate according to 20 μL/well to obtain a final concentration of 100 μM, and the mixture was uniformly mixed and incubated at 37° C. for 60 min; ATP (Sigma; A7699-1G) was diluted with Tris-MgCl2 buffer to form a stock solution (7×), which was added to the above 96-well plate according to 10 μL/well to obtain a final concentration of 100 μM, and the mixture was uniformly mixed, incubated for 5 min, and tested by using an ATP-GLO kit (Promega; G7573).
For `O=c1[nH]cc(-c2cc([C@H]3C[C@@H]3C(F)(F)F)c(Cl)nn2)c(=O)[nH]1` [US20230399314, Compound 3], the IC50 was 11.6 nM. As to `O=c1[nH]cc(-c2cc([C@@H]3C[C@H]3C(F)(F)F)c(Cl)nn2)c(=O)[nH]1` (relative stereo) [US20230399314, Compound 2], the IC50 is 23.2 nM.

Take `O=c1[nH]cc(-c2cc([C@H]3C[C@@H]3CF)c(Cl)nn2)c(=O)[nH]1` [US20230399314, Compound 9]: the IC50 worked out at 4.59 nM.
